Where two headings read alike, the source gives them in different places.
Assays:
Assay type in all cases: cell-based
[1] = biological target: T1, protein kinases (human kinome) (Homo sapiens, UniProt O94768); details: for logFC STK17B (O94768): direction down; for logFC: STK17B (O94768)
T1 sequence (O94768 1-372): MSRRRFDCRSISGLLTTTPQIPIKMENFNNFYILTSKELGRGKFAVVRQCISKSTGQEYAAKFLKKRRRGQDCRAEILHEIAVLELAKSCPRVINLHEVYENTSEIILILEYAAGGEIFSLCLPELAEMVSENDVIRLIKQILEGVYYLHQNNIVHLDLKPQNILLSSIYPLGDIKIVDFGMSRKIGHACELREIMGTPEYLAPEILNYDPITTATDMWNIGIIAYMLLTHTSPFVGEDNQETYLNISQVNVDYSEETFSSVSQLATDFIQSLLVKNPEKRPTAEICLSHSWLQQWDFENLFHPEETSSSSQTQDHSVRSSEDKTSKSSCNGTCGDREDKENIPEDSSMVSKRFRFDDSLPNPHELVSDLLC

[2] = biological target: T2, protein kinases (human kinome) (Homo sapiens, UniProt Q9UEE5); details: STK17A Q9UEE5
T2 sequence (Q9UEE5 1-414): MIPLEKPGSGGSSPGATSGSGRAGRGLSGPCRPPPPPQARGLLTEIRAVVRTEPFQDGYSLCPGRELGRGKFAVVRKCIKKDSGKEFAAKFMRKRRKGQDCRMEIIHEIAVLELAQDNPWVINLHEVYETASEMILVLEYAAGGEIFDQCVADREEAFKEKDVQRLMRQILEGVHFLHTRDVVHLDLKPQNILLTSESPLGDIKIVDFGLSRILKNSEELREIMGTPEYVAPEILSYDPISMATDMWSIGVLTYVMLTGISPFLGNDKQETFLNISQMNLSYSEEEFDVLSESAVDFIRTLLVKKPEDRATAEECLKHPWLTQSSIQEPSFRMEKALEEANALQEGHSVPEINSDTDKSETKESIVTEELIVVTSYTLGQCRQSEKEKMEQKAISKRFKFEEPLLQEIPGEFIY

[3] = biological target: protein kinases (human kinome) (Homo sapiens, UniProt Q14289); details: for logFC: PTK2B (Q14289-1) protein abundance, degrader vs DMSO, down; for logFC PTK2B: accession Q14289-1, direction of change down
protein kinases (human kinome) (Homo sapiens, UniProt Q14289), sequence (Q14289 whole entry): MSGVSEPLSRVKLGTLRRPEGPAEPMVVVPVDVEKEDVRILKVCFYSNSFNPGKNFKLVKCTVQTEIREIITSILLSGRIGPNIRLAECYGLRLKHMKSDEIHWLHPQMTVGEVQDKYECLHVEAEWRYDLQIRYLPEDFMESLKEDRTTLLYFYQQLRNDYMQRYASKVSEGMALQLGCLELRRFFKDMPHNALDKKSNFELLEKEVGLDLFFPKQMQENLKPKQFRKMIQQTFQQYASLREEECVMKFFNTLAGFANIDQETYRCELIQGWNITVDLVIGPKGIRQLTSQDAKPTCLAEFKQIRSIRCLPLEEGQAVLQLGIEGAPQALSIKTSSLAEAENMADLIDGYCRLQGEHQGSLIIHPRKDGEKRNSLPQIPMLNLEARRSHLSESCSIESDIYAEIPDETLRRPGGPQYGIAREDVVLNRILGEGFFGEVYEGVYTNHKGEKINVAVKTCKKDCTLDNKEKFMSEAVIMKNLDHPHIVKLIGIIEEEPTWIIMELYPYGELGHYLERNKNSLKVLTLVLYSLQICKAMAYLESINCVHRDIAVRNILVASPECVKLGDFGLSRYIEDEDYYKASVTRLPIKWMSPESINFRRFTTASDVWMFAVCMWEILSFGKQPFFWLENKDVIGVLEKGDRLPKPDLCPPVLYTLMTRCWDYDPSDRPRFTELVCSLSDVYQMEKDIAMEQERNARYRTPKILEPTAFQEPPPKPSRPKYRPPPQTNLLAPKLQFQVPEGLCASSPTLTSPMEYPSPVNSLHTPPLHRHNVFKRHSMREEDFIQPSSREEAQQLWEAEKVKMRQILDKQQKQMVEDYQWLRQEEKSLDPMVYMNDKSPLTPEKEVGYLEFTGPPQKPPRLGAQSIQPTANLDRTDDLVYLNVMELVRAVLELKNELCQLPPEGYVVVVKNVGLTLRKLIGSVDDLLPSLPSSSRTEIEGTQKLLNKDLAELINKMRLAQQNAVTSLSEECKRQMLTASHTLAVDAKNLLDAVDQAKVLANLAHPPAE

[4] = biological target: protein kinases (human kinome) (Homo sapiens, UniProt P50613)
protein kinases (human kinome) (Homo sapiens, UniProt P50613), sequence (P50613 whole entry): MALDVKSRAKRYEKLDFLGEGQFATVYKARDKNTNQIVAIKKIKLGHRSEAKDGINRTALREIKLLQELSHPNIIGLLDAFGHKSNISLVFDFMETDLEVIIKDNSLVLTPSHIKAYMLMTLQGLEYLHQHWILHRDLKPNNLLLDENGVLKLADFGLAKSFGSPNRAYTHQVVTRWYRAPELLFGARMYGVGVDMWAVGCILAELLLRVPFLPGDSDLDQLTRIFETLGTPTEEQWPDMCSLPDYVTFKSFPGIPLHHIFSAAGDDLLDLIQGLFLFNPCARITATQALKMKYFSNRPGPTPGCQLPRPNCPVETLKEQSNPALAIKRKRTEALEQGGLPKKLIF

Which results are given for `Nc1ncc(-c2ccc(S(=O)(=O)N(CCCNC(=O)CCOCCOCCOCCOCCOCCNc3cccc4c3C(=O)N(C3CCC(=O)NC3=O)C4=O)C3CC3)cc2)cc1-c1ccc2c(c1)CCNC2=O` (stereo not drawn) [WH.10417.099]?
logFC STK17B (O94768) ([1]; Experiment wp056): −1.507; logFC STK17B (O94768) ([1]; Experiment wp103): −1.292; logFC STK17B (O94768) ([1]; Experiment wp105): −0.7924; logFC STK17B (O94768) ([1]; Experiment wp107): −1.472; logFC STK17B (O94768) ([1]; Experiment wp172): −1.234; logFC ([1]; experiment wp056): −1.507; logFC ([1]; experiment wp103): −1.292; logFC ([1]; experiment wp105): −0.7924; logFC ([1]; experiment wp107): −1.472; logFC ([1]; experiment wp172): −1.234

Which results are given for `C[C@@H]1C[C@@H](O)c2ncnc(N3CCN(C(=O)[C@H](CNCCCCCCCCCCc4cccc5c4C(=O)N(C4CCC(=O)NC4=O)C5=O)c4ccc(Cl)cc4)CC3)c21` (stereo partly drawn) [INY.03.041.01]?
logFC ([2]; experiment wp118): −0.4361; logFC STK17A ([2]; experiment wp118): −0.4361; logFC STK17A ([2]; experiment wp135, 8 hr): −0.497

For `Cc1cnc(Nc2ccc(N3CCN(CCCCCCC(=O)N[C@H](C(=O)N4C[C@H](O)C[C@H]4C(=O)N[C@@H](C)c4ccc(-c5scnc5C)cc4)C(C)(C)C)CC3)cc2)nc1Nc1cccc(S(=O)(=O)NC(C)(C)C)c1` [JWG.123], which “logFC STK17B (O94768)” value ([1]; Experiment wp195) is on record?
The value was −1.872.

What about the logFC ([1]; experiment wp195) of the same molecule?
Its logFC is −1.872.

And the logFC ([2]; experiment wp195)?
The logFC was −0.6451.

What about the “logFC STK17A” value ([2]; experiment wp195) of the same molecule?
The value was −0.6451.

How did the “logFC STK17B (O94768)” value ([1]; Experiment wp195) turn out when `Cc1ncsc1-c1ccc([C@H](C)NC(=O)[C@@H]2C[C@@H](O)CN2C(=O)[C@@H](NC(=O)CCCCCN2CCc3cc(Nc4ncc(C5CC5)c(NCCCNC(=O)C5CCC5)n4)ccc3C2)C(C)(C)C)cc1` [BSJ.05.026] was run?
The value was −0.9299.

And the logFC ([1]; experiment wp195)?
The logFC was −0.9299.

And the logFC ([2]; experiment wp195)?
The logFC was −0.5209.

And the “logFC STK17A” value ([2]; experiment wp195)?
Its value is −0.5209.

With `CS(=O)(=O)Nc1cccc(-c2csc3cnc(Nc4ccc(N5CCN(CCOCCOCCOc6cccc7c6C(=O)N(C6CCC(=O)NC6=O)C7=O)CC5)cc4)nc23)c1` (stereo not drawn) [RSS0628] as the molecule, how does the “logFC STK17B (O94768)” value ([1]; Experiment wp045) read?
The value was −1.075.

And the logFC ([1]; experiment wp045)?
The logFC was −1.075.

What about the logFC [3] of the same molecule?
Its logFC is −1.517.

And the “logFC PTK2B” value ([3]; experiment wp045)?
The value was −1.517.

What about the logFC ([2]; experiment wp045) of the same molecule?
Its logFC is −1.48.

What about the “logFC STK17A” value ([2]; experiment wp045) of the same molecule?
Its value is −1.48.

`CNC(=O)c1ccccc1Nc1cc(Nc2ccc(N3CCN(CCOCCOCCNC(=O)CNc4cccc5c4C(=O)N(C4CCC(=O)NC4=O)C5=O)CC3)cc2OC)ncc1C(F)(F)F` (stereo not drawn) [MFH.5.103.1] was tested. Which logFC [3] did it give?
Its logFC is −3.18.

And the “logFC PTK2B” value ([3]; experiment wp076)?
The value was −3.18.

What about the logFC ([4]; CDK7 (P50613) protein abundance, degrader vs DMSO, down) of the same molecule?
Its logFC is −0.5098.

What about the “logFC CDK7” value ([4]; CDK7 P50613, experiment wp076) of the same molecule?
The value was −0.5098.

For `CS(=O)(=O)Nc1cccc(-c2csc3cnc(Nc4ccc(N5CCN(CCCCCOc6cccc7c6C(=O)N(C6CCC(=O)NC6=O)C7=O)CC5)cc4)nc23)c1` (stereo not drawn) [DB0614, N-(3-(2-((4-(4-(5-((2-(2,6-Dioxopiperidin-3-yl)-1,3-dioxoisoindolin-4-yl)oxy)pentyl)piperazin-1-yl)phenyl)amino)thieno[3,2-d]pyrimidin-7-yl)phenyl)methanesulfonamide], which “logFC STK17B (O94768)” value ([1]; Experiment wp045) is on record?
The value was −0.9829.

What about the “logFC STK17B (O94768)” value ([1]; Experiment wp117) of the same molecule?
Its value is −0.7771.

And the logFC ([1]; experiment wp045)?
The logFC was −0.9829.

What about the logFC ([1]; experiment wp117) of the same molecule?
The logFC was −0.7771.

What about the logFC [3] of the same molecule?
The logFC was −1.425.

What about the “logFC PTK2B” value ([3]; experiment wp045) of the same molecule?
The value was −1.425.

What about the logFC ([2]; experiment wp045) of the same molecule?
The logFC was −1.128.

And the “logFC STK17A” value ([2]; experiment wp045)?
The value was −1.128.

What about the logFC ([2]; experiment wp117) of the same molecule?
Its logFC is −0.969.

What about the “logFC STK17A” value ([2]; experiment wp117) of the same molecule?
The value was −0.969.

With `O=C(COc1cccc2c1C(=O)N(C1CCC(=O)NC1=O)C2=O)NCCCCCCCN1CCc2cc(Nc3ncc(C4CC4)c(NCCCNC(=O)C4CCC4)n3)ccc2C1` (stereo not drawn) [BSJ.04.178] as the molecule, how does the “logFC STK17B (O94768)” value ([1]; Experiment wp134) read?
The value was −1.604.

And the logFC ([1]; experiment wp134)?
The logFC was −1.604.

And the logFC ([2]; experiment wp134)?
Its logFC is −0.7107.

And the “logFC STK17A” value ([2]; experiment wp134)?
The value was −0.7107.

From patent publication US20240269139A1, “COMPOUNDS FOR TARGETED PROTEIN DEGRADATION OF KINASES” (DANA-FARBER CANCER INSTITUTE, INC., priority 2020, published 2024)
